Experimental data as given in US5087562A, “Humoral hypercalcemic factor antagonists with modification at position 13 . . ” (Merck & Co., Inc., priority 1990, dated 1992).

Legend:
[1] = biological target: T1, Bovine renal cortical plasma membranes (HCF cell surface receptor) (Bos taurus, UniProt Q1LZF7); test: HCF binding assay (radioligand receptor assay); conditions: radioligand [Nle^8,18,(^125 I)-Tyr^34]bPTH(1-34)NH2, 30 min at 21° C
T1 construct: from tissue; host or cells: bovine renal cortex plasma membranes
T1 sequence (Q1LZF7 29-589): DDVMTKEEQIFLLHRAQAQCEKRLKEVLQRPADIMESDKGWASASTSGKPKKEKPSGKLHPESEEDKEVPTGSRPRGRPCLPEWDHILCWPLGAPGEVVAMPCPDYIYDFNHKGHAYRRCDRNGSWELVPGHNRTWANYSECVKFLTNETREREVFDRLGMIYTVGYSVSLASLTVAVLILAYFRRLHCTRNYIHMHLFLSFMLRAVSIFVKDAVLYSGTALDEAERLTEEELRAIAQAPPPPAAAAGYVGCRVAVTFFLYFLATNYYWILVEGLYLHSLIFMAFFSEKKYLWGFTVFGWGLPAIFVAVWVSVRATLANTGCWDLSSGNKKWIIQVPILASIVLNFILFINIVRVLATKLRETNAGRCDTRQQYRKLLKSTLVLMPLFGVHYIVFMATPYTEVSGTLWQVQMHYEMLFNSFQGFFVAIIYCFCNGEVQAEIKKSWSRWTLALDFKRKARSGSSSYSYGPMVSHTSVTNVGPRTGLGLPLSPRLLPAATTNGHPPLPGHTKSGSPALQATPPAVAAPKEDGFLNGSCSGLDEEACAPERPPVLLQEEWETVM
Method: HCF analogues were analysed in a new receptor assay which modified the assay reported in Rosenblatt et al., Endocrin 107: 545-550 (1980). The binding assay used [Nle^8,18, (^125 I)-Tyr^34 ]bPTH (1-34)NH2 which was purified by HPLC (Novapak C18, 32-35% CH3 CN in 0.1% TFA) and was stored as aliquots in 25 mM TrisHCl/1%BSAat -70° C. Bovine renal cortical plasma membranes were incubated with radioligand (25,000 cpm) in a Tris-containing buffer (250 μl) for 30 min. at 21° C. Once equilibrium was reached, bound and free radioligand were separated by centrifugation.
High specific binding (85%) to bovine renal cortical membranes was obtained consistently.
The assay reported on page 546 in Rosenblatt, et al. is as follows:
Radioligand binding assay: A PTH-binding assay based on the sulfur-free ^125 I-labeled hormone analog, [Nle-8,Nle-18,Tyr-34]-bPTH-(1-34)amide,was employed (4). The assay is specific and saturable with regard to PTH binding, and binding avidity in this system correlates closely with biological acitibity for multiple PTH agonist fragments and analogs. […] Inhibition of specific binding of radioligand was assessed for each fragment over several log orders of magnitude. […] In each assay, inhibition of radioligand binding was determined in triplicate at each concentration of peptide used.

[2] = tested on: bovine renal membrane adenylate cyclase; conditions: bovine renal cortical membranes; quoted from Horiuchi et al.; cited from earlier work

Compound: CC[C@H](C)[C@H](NC(=O)[C@H](CC(C)C)NC(=O)[C@H](Cc1c[nH]cn1)NC(=O)[C@H](Cc1c[nH]cn1)NC(=O)[C@H](CC(C)C)NC(=O)[C@H](Cc1ccccc1)NC(=O)[C@H](Cc1ccccc1)NC(=O)[C@H](CCCNC(=N)N)NC(=O)[C@H](CCCNC(=N)N)NC(=O)[C@H](CCCNC(=N)N)NC(=O)[C@H](CC(C)C)NC(=O)[C@H](CC(=O)O)NC(=O)[C@H](CCC(N)=O)NC(=O)[C@@H](NC(=O)[C@H](CO)NC(=O)[C@H](CCCCNC(=O)CCc1ccccc1)NC(=O)[C@@H](Cc1c[nH]c2ccccc12)NC(=O)[C@H](CC(C)C)NC(=O)[C@H](CC(=O)O)NC(=O)[C@H](Cc1c[nH]cn1)NC(=O)CCC(C)C)[C@@H](C)CC)C(=O)N[C@@H](C)C(=O)N[C@@H](CCC(=O)O)C(=O)N[C@H](C(=O)N[C@@H](Cc1c[nH]cn1)C(=O)N[C@H](C(=O)N[C@@H](C)C(N)=O)[C@@H](C)O)[C@@H](C)CC [desamino [Leu^11, D-Trp^12, Lys^13 (N^ε --CO(CH2)2 -Phenyl)]hHCF(8-34)NH2]
- Kb [1]: 20 ± 3 nM

Compound: hHCF-(1-34)NH2
- potency in adenylate cyclase assay (stimulation) [2]: potency comparable to PTH
